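At the GI50, growth is halved. TGI denotes the concentration required for complete inhibition of growth.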
Legend:
Experiment in all cases: NCI-60 cell line screen, 384-well format
MOLT-4 leukemia = system: MOLT-4 leukemia
HOP-62 NSCLC = system: HOP-62 NSCLC
LOX IMVI melanoma = system: LOX IMVI melanoma
COLO 205 colon = system: COLO 205 colon
NCI-H322M lung = system: NCI-H322M lung
RPMI-8226 leukemia = system: RPMI-8226 leukemia
SNB-19 CNS = system: SNB-19 CNS
ACHN renal = system: ACHN renal
HL-60(TB) leukemia = system: HL-60(TB) leukemia
U251 glioblastoma = system: U251 glioblastoma
BT-549 breast = system: BT-549 breast
T-47D breast = system: T-47D breast
SF-268 CNS = system: SF-268 CNS
HOP-92 NSCLC = system: HOP-92 NSCLC
HCT-116 colon = system: HCT-116 colon
SW-620 colon = system: SW-620 colon
KM12 colon = system: KM12 colon
M14 melanoma = system: M14 melanoma
K-562 leukemia = system: K-562 leukemia
MDA-MB-435 melanoma = system: MDA-MB-435 melanoma
SN12C renal = system: SN12C renal
UACC-257 melanoma = system: UACC-257 melanoma
NCI/ADR-RES ovarian = system: NCI/ADR-RES ovarian
TK-10 renal = system: TK-10 renal
HCT-15 colon = system: HCT-15 colon
UO-31 renal = system: UO-31 renal
SK-MEL-28 melanoma = system: SK-MEL-28 melanoma
786-0 renal = system: 786-0 renal
IGROV1 ovarian = system: IGROV1 ovarian
RXF 393 renal = system: RXF 393 renal
OVCAR-8 ovarian = system: OVCAR-8 ovarian
PC-3 prostate = system: PC-3 prostate
SF-539 CNS = system: SF-539 CNS
CAKI-1 renal = system: CAKI-1 renal
A498 renal = system: A498 renal
CCRF-CEM leukemia = system: CCRF-CEM leukemia
DU-145 prostate = system: DU-145 prostate
OVCAR-3 ovarian = system: OVCAR-3 ovarian
OVCAR-5 ovarian = system: OVCAR-5 ovarian
HT29 colon = system: HT29 colon
UACC-62 melanoma = system: UACC-62 melanoma
A549 NSCLC = system: A549 NSCLC
NCI-H226 lung = system: NCI-H226 lung
SF-295 CNS = system: SF-295 CNS
HCC-2998 colon = system: HCC-2998 colon
SK-MEL-5 melanoma = system: SK-MEL-5 melanoma
NCI-H460 NSCLC = system: NCI-H460 NSCLC

In the case of `CN(CCO)CC[C@H](CSc1ccccc1)Nc1ccc(S(=O)(=O)NC(=O)c2ccc(N3CCC([C@@H](O)c4ccccc4-c4ccc(Cl)cc4)CC3)cc2)cc1S(=O)(=O)C(F)(F)F`, the GI50 (MOLT-4 leukemia) is reported as < 0.01 µM, the TGI (MOLT-4 leukemia) is reported as < 0.01 µM and the GI50 (HOP-62 NSCLC) is reported as 5.33 µM. The TGI (HOP-62 NSCLC) was 16.7 µM, the GI50 (LOX IMVI melanoma) was 1.96 µM and the TGI (LOX IMVI melanoma) was 3.62 µM. For the same compound, the GI50 (COLO 205 colon) was 0.807 µM, the TGI (COLO 205 colon) was 2.13 µM and the GI50 (NCI-H322M lung) was 2.72 µM. The TGI (NCI-H322M lung) was 9.6 µM, the GI50 (RPMI-8226 leukemia) was < 0.01 µM and the TGI (RPMI-8226 leukemia) was < 0.01 µM. The GI50 (SNB-19 CNS) was 4.85 µM, the TGI (SNB-19 CNS) was 17.2 µM and the GI50 (ACHN renal) was 22.6 µM. For the same compound, the TGI (ACHN renal) was > 100 µM, the GI50 (HL-60(TB) leukemia) was < 0.01 µM and the TGI (HL-60(TB) leukemia) was < 0.01 µM. It also gave a GI50 (U251 glioblastoma) of 2.62 µM, a TGI (U251 glioblastoma) of 6.48 µM and a GI50 (BT-549 breast) of 3.45 µM. It also gave a TGI (BT-549 breast) of 10.3 µM, a GI50 (T-47D breast) of 3.88 µM and a TGI (T-47D breast) of 14.6 µM. For the same compound, the GI50 (SF-268 CNS) was 4.16 µM, the TGI (SF-268 CNS) was 13.9 µM and the GI50 (HOP-92 NSCLC) was < 0.01 µM. It also gave a TGI (HOP-92 NSCLC) of 0.301 µM, a GI50 (HCT-116 colon) of 2.97 µM and a TGI (HCT-116 colon) of 9.36 µM. For the same compound, the GI50 (SW-620 colon) was 4.48 µM, the TGI (SW-620 colon) was 16.2 µM and the GI50 (KM12 colon) was 2.69 µM. For the same compound, the TGI (KM12 colon) was 6.67 µM, the GI50 (M14 melanoma) was 2.82 µM and the TGI (M14 melanoma) was 7.47 µM. For the same compound, the GI50 (K-562 leukemia) was 3.04 µM, the TGI (K-562 leukemia) was 8.08 µM and the GI50 (MDA-MB-435 melanoma) was 3.42 µM. The TGI (MDA-MB-435 melanoma) was 9.42 µM, the GI50 (SN12C renal) was 4.04 µM and the TGI (SN12C renal) was 13.9 µM. The GI50 (UACC-257 melanoma) was 2.29 µM, the TGI (UACC-257 melanoma) was 13.6 µM and the GI50 (NCI/ADR-RES ovarian) was > 100 µM. The TGI (NCI/ADR-RES ovarian) was > 100 µM, the GI50 (TK-10 renal) was 3.78 µM and the TGI (TK-10 renal) was 15.9 µM. For the same compound, the GI50 (HCT-15 colon) was 64.9 µM, the TGI (HCT-15 colon) was > 100 µM and the GI50 (UO-31 renal) was > 100 µM. For the same compound, the TGI (UO-31 renal) was > 100 µM, the GI50 (SK-MEL-28 melanoma) was 2.31 µM and the TGI (SK-MEL-28 melanoma) was 4.96 µM. It also gave a GI50 ([…]-0 renal) of 2.51 µM, a TGI (786-0 renal) of 6.68 µM and a GI50 (IGROV1 ovarian) of 1.6 µM. For the same compound, the TGI (IGROV1 ovarian) was 3.25 µM, the GI50 (RXF 393 renal) was < 0.01 µM and the TGI (RXF 393 renal) was 0.53 µM. The GI50 (OVCAR-8 ovarian) was 11.9 µM, the TGI (OVCAR-8 ovarian) was 24.4 µM and the GI50 (PC-3 prostate) was 2.43 µM. It also gave a TGI (PC-3 prostate) of 5.71 µM, a GI50 (SF-539 CNS) of 4.11 µM and a TGI (SF-539 CNS) of 14.7 µM. It also gave a GI50 (CAKI-1 renal) of 5.42 µM, a TGI (CAKI-1 renal) of 15.9 µM and a GI50 (A498 renal) of 1.73 µM. For the same compound, the TGI (A498 renal) was 6.09 µM, the GI50 (CCRF-CEM leukemia) was < 0.01 µM and the TGI (CCRF-CEM leukemia) was 0.0137 µM. For the same compound, the GI50 (DU-145 prostate) was 18.6 µM, the TGI (DU-145 prostate) was 55.9 µM and the GI50 (OVCAR-3 ovarian) was 3.54 µM. The TGI (OVCAR-3 ovarian) was 12.2 µM, the GI50 (OVCAR-5 ovarian) was 5 µM and the TGI (OVCAR-5 ovarian) was 21.3 µM. For the same compound, the GI50 (HT29 colon) was 4.35 µM, the TGI (HT29 colon) was 15.5 µM and the GI50 (UACC-62 melanoma) was 2.32 µM. For the same compound, the TGI (UACC-62 melanoma) was 5.75 µM, the GI50 (A549 NSCLC) was > 100 µM and the TGI (A549 NSCLC) was > 100 µM. The GI50 (NCI-H226 lung) was 1.76 µM, the TGI (NCI-H226 lung) was 6.04 µM and the GI50 (SF-295 CNS) was 2.16 µM. The TGI (SF-295 CNS) was 5.23 µM, the GI50 (HCC-2998 colon) was < 0.01 µM and the TGI (HCC-2998 colon) was 0.199 µM. It also gave a GI50 (SK-MEL-5 melanoma) of 1.81 µM, a TGI (SK-MEL-5 melanoma) of 6.32 µM and a GI50 (NCI-H460 NSCLC) of 13.7 µM. The TGI (NCI-H460 NSCLC) was 27.9 µM.
